Assay results: patent publication US6875761B2 (Eisai Co., Ltd., priority 1997, dated 2005)
Where a name gives a salt, the structure may show the parent alone.

Legend:
serotonin 1A receptor = molecular target: T1, serotonin 1A receptor (Rattus norvegicus, UniProt P19327); assay: Binding test on [3H] 8-hydroxy-dipropylaminotetralin, hippocampus receptor fraction; set-up: species or system SD rats; conditions: rat hippocampus receptor fraction, 0.5 nM [3H] 8-OH-DPAT, room temperature 30 min; read-out: 5HT1
T1 construct: To the receptor fraction of the hippocampus were added a test compound and 0.5 nM of [^3H]; 8-hydroxy-dipropylaminotetralin; from tissue; host or cells: rat hippocampus membrane fraction
T1 sequence (P19327 1-422): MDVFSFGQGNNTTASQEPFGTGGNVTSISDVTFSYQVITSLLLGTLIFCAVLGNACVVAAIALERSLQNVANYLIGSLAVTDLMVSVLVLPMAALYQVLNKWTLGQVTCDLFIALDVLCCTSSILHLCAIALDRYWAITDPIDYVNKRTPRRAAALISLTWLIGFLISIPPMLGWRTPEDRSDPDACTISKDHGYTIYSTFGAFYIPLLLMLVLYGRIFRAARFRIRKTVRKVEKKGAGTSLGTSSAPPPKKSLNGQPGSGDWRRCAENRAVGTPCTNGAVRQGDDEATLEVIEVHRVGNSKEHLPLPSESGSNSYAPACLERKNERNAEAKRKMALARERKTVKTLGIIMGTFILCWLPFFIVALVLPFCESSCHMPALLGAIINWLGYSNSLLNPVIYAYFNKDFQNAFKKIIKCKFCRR

serotonin 2 receptor = molecular target: T2, serotonin 2 receptor (Rattus norvegicus, UniProt P14842); assay: Binding test on [3H] ketanserin, cerebral cortex receptor fraction; set-up: species or system SD rats; conditions: 0.3 nM [3H] ketanserin, 37° C. 15 min, read-out: 5HT2
T2 construct: To the receptor fraction of the cerebral cortex were added a test compound and 0.3 nM of [^3H] ketanserin; from tissue; host or cells: rat cerebral cortex membrane fraction
T2 sequence (P14842 whole entry): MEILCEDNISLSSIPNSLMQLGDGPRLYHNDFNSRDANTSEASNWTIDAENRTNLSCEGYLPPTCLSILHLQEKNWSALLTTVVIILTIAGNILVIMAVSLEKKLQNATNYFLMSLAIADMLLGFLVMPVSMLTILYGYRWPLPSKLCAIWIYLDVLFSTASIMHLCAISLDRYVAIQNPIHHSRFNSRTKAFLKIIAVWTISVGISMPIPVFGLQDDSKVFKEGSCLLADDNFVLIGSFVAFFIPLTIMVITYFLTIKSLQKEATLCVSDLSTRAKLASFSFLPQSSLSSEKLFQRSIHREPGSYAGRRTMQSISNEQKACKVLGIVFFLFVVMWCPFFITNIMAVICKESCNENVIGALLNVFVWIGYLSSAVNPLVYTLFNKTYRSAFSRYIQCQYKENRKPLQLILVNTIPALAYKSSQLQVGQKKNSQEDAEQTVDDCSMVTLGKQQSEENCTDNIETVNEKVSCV

Structure (SMILES)	Ki (serotonin 1A receptor) [nM]	Ki (serotonin 2 receptor) [nM]
CCN1CCN(c2nc(C#Cc3ccc(OC)cc3)cc3ccccc23)CC1 [Example 178, 1-(1-Ethylpiperazin-4-Yl)-3-(4-Methoxyphenyl)Ethynylisoquinoline Dihydrochloride]	56.4	0.2
CCN1CCN(c2nc(C#Cc3cncc(CCCOC)c3)cc3ccccc23)CC1 [Example 186, 1-(1-Ethylpiperazin-4-Yl)-3-[3-(3-Methoxypropyl)-5-Pyridyl]Ethynylisoquinoline]	2.83	4.5
CCN1CCN(c2nc(C#Cc3ncccc3OCCO)cc3ccccc23)CC1 [Example 188, 1-(1-Ethylpiperazin-4-Yl)-3-[3-(2-Hydroxyethoxy)-2-Pyridyl]Ethynylisoquinoline]	4.47	107
CCN1CCN(c2nc(/C=C/c3ccccc3)cc3ccccc23)CC1 [Example 189, 1-(1-Ethylpiperazin-4-Yl)-3-(Trans-2-Phenylethenyl)Isoquinoline Dihydrochloride]	37.2	0.44
CCN1CCN(c2nc(/C=C/c3ccc(OC)cc3)cc3ccccc23)CC1 [Example 190, 1-(1-Ethylpiperazin-4-Yl)-3-[Trans-2-(4-Methoxyphenyl)Ethenyl]Isoquinoline Dihydrochloride]	35	3.85
CCN1CCN(c2nc(C(C)=Cc3ccccc3)cc3ccccc23)CC1 [Example 192, 1-(1-Ethylpiperazin-4-Yl)-3-(Cis-1-Methyl-2-Phenylethenyl) Isoquinoline Oxalate]	66.7	7.85
CCN1CCN(c2nc(/C=C(\C)c3ccccc3)cc3ccccc23)CC1 [Example 196, 1-(1-Ethylpiperazin-4-Yl)-3-(Trans-2-Methyl-2-Phenylethen-1-Yl)Isoquinoline Oxalate]	66.7	6.44
CCN1CCN(c2nc(/C=C/c3ccccc3F)cc3ccccc23)CC1 [Example 197, 1-(1-Ethylpiperazin-4-Yl)-3-[Trans-2-(2-Fluorophenyl)Ethenyl]isoquinoline Oxalate]	70.7	4.26
CCN1CCN(c2nc(/C=C/c3ccc(OCCO)cc3)cc3ccccc23)CC1 [Example 198, 1-(1-Ethylpiperazin-4-Yl)-3-[(E)-4-(2-Hydroxyethoxy)Styryl]Isoquinoline Oxalate]	45.5	9.08
CCN1CCN(c2nc(/C=C/c3ccc(N4CCOCC4)nc3)cc3ccccc23)CC1 [Example 200, 3-[(E)-2-[2-(4-Morpholinyl)Pyridin-5-Yl]Ethenyl]-1-(4-Ethylpiperazin-1-Yl)Isoquinoline Hydrochloride]	77.3	7.33
CCN1CCN(c2nc(/C=C/c3ccc(S(C)(=O)=O)cc3)cc3ccccc23)CC1 [Example 201, 3-[(E)-2-(4-Methylsulfonylphenyl)Ethenyl]-1-(4-Ethylpiperazin-1-Yl)Isoquinoline Hydrochloride]	35.9	2.96
CCN1CCN(c2nc(/C=C/c3ccc(N4CCOCC4)cc3)cc3ccccc23)CC1 [Example 205, 3-{(E)-2-[4-(4-Morpholinyl)Phenyl]Ethenyl}-1-(4-Ethylpiperazin-1-Yl)Isoquinoline Oxalate]	33.1	0.98
CCN1CCN(c2nc(/C=C(\C)c3ccc(N4CCOCC4)cc3)cc3ccccc23)CC1 [Example 206, 3-{(E)-2-Methyl-2-[4-(4-Morpholinyl)Phenyl]Ethenyl}-1-(4-Ethylpiperazin-1-Yl)Isoquinoline Oxalate]	77.1	2.59
CCN1CCN(c2nc(/C=C/c3ccncc3)cc3ccccc23)CC1 [Example 210, 1-(1-Ethylpiperazin-4-Yl)-3-[Trans-2-(4-Pyridyl)Ethenyl]Isoquinoline]	6.56	3.95
CCN1CCN(c2nc(/C=C/Cc3ccccc3OC)cc3ccccc23)CC1 [Example 211]	5.17	40.2
CCN1CCN(c2nc(/C=C/c3cc(N4CCOCC4)ncn3)cc3ccccc23)CC1 [Example 215, 3{(E)-2-[4-(4-morpholinyl)pyrimidin-6-yl]ethenyl}-1-(4-ethylpiperazin-1-yl)isoquinoline oxalate]	51.9	20.9
CCN1CCN(c2nc(-c3ccc(OC)cc3)cc3cccc(F)c23)CC1 [Example 233, 1-(1-ethylpiperazin-4-yl)-8-fluoro-3-(4-methoxyphenyl)isoquinoline dihydrochloride]	200	1.97
CCN1CCN(c2nc(-c3ccc(OCCO)cc3)cc3cccc(F)c23)CC1 [Example 234, 1-(1-ethylpiperazin-4-yl)-8-fluoro-3-[4-(2-hydroxyethoxy)phenyl]isoquinoline dihydrochloride]	129	1.11

The remaining compounds from weak to strong by Ki (serotonin 1A receptor), led by results:

Ki (serotonin 1A receptor) [nM]	Ki (serotonin 2 receptor) [nM]	Structure (SMILES)
30.9	122	CCN1CCN(c2nc(C#CC(=O)c3ccccc3)cc3ccccc23)CC1 [Example 184, 1-(1-Ethylpiperazin-4-Yl)-3-Benzoylethynylisoquinoline Oxalate]
27.1	78.6	CCN1CCN(c2nc(-c3ccc(OC)cc3)cc3cccnc23)CC1 [Example 244, 8-(4-ethylpiperazin-1-yl)-6-(4-methoxyphenyl)pyrido[2,3-c]pyridine Hydrochloride]
25.5	18.5	CCN1CCN(c2nc(/C=C/c3cccc(N4CCOCC4)c3)cc3ccccc23)CC1 [Example 204, 3-{(E)-2-[3-(4-Morpholinyl)Phenyl]Ethenyl}-1-(4-Ethylpiperazin-1-Yl)Isoquinoline Oxalate]
23	37.2	CCN1CCN(c2nc(/C=C/c3ccccc3OC)cc3ccccc23)CC1 [Example 195, 1-(1-Ethylpiperazin-4-Yl)-3-[Trans-2-(2-Methoxyphenyl)Ethenyl]Isoquinoline Oxalate]
22.2	17.9	CCN1CCN(c2nc(/C=C(\C)c3cccc(N4CCOCC4)c3)cc3ccccc23)CC1 [Example 207, 3-{(E)-2-Methyl-2-[3-(4-Morpholinyl)Phenyl]Ethenyl}-1-(4-Ethylpiperazin-1-Yl)Isoquinoline Oxalate]
21.2	2	CCN1CCN(c2nc(C#Cc3ccc(OC)cc3OC)cc3ccccc23)CC1 [Example 185, 1-(1-Ethylpiperazin-4-Yl)-3-(2,4-Dimethoxyphenylethynyl)Isoquinoline Dihydrochloride]
16.6	15.5	CCN1CCN(c2nc(/C=C/c3cncc(N4CCOCC4)n3)cc3ccccc23)CC1 [Example 216, 3-{(E)-2-[2-(4-morpholinyl)pyrazin-6-yl]ethenyl}-1-(4-ethylpiperazin-1-yl)isoquinoline oxalate]
15.6	7.59	CCN1CCN(c2nc(/C=C/c3ccc(N4CCOCC4)nn3)cc3ccccc23)CC1 [Example 214, 3-{(E)-2-[3-(4-Morpholinyl)Pyridazin-6-Yl]Ethenyl}-1-(4-Ethylpiperazin-1-Yl)Isoquinoline Oxalate]
13	6.7	CCS(=O)(=O)NCc1ccc(-c2cc3ccccc3c(N3CCN(CCO)CC3)n2)cc1 [Example 243, 3-(4-ethylsulfonylaminomethylphenyl)-1-[4-(2-hydroxyethyl)piperazin-1-yl]isoquinoline Hydrochloride]
13	0.93	CCN1CCN(c2nc(/C=C\c3ccc(OC)cc3)cc3ccccc23)CC1 [Example 191, 1-(1-Ethylpiperazin-4-Yl)-3-[Cis-2-(4-Methoxyphenyl)Ethenyl]Isoquinoline Oxalate]
11.2	33.7	CCN1CCN(c2nc(/C=C/c3ccccc3OCCO)cc3ccccc23)CC1 [Example 194, 1-(1-Ethylpiperazin-4-Yl)-3-[trans-2-(2-Hydroxyethoxyphenyl)Ethenyl]Isoquinoline Oxalate]
10	15.9	CCN1CCN(c2nc(C#CCCc3ccccc3)cc3ccccc23)CC1 [Example 182, 1-(1-Ethylpiperazin-4-Yl)-3-[4-Phenyl-1-Butynyl)Isoquinoline Dihydrochloride]
5.5	0.52	CCN1CCN(c2nc(/C=C/c3ccc(CS(C)(=O)=O)cc3)cc3ccccc23)CC1 [Example 203, 3-[(E)-2-(4-Methylsulfonylmethylphenyl)Ethenyl]-1-(4-Ethylpiperazin-1-Yl)Isoquinoline Oxalate]
3.28	2.35	CCN1CCN(c2nc(/C=C/c3ccccn3)cc3ccccc23)CC1 [Example 209, 1-(1-Ethylpiperazin-4-Yl)-3-[Trans-2-(2-Pyridyl)Ethenyl]Isoquinoline Trihydrochloride]
3.27	3.8	CCN1CCN(c2nc(/C=C/c3cccc(OCCO)c3)cc3ccccc23)CC1 [Example 199, 1-(1-Ethylpiperazin-4-Yl)-3-(Trans-2-(3-(2-Hydroxyethoxy)Phenyl]Ethenyl]isoquinoline Oxalate]
2.99	5.92	CCN1CCN(c2nc(CNc3ccc(OC)cc3)cc3ccccc23)CC1 [Example 219, 1-(1-ethylpiperazin-4-yl)-3-(4-methoxyanilinomethyl)isoquinoline oxalate]
